# Experimental data reported in US20240368209A1, “GEMCITABINE ANTICANCER DERIVATIVE AND ANTICANCER PHARMACEUTICAL USE” (ASCENTAWITS PHARMACEUTICALS, LTD., priority 2021, published 2024).
# pIC50: −log10 of the molar value. “And” between values parts separate entries of the source, which are not always exact repeats. Equal entries are not always repeated. Where two headings read alike, the source gives them in different places.
# How the values were obtained:
# [1] = tested on: H460 non-small cell lung cancer human tumor cell line; experiment: In vitro human tumor cell line cytotoxicity (proliferation) assay on H460, CTG, with or without AST-3021; assay type: cell-based; conditions: for pIC50: Homo sapiens
# Protocol: In vitro human tumor cell line cytotoxicity assay was used.
# In vitro proliferation data on the H460 non-small cell lung cancer human tumor cell line (cell line which highly expresses AKR1C3) is reported below in the compound table.
# IC50 values were obtained with the following steps:
# Specifically, exponentially growing cells were seeded at a density of 2×10^3 cells/100 μL/well in a 96-well plate and incubated at 37° C. in 5% CO2, 95% air and 100% relative humidity for 24 hours. The test compound was administered alone: 24 hours after cell plating, the compound acted alone, 99 μL of growth medium per well was added, and 1 μL of the compound prepared at 200× was added, and the plate was shaken gently to ensure even mixing, then placed into an incubator of 37° C., 5% CO2. After further cultivation for 72 hours, the number of live cells was detected using CTG. The CTG detection method was as follows: the cell plate to be tested was placed at room temperature to equilibrate for 30 minutes, and 100 μL of medium per well was discarded. 25 μL of CTG reagent (CellTiter-Glo® kit) per well was added, and the plate was placed in a high-speed shaker to oscillate for 2 minutes, and placed at room temperature in the dark for 30 minutes. The chemiluminescence signal value was read using a multimode microplate reader, with a read time of 1000 ms.
# Similarly, in order to further verify that the compounds were activated by human AKR1C3 (aldosterone reductase family 1 member C3), the effect of some of the compounds on the proliferation of H460 cancer cells was tested with pretreatment with a specific AKR1C3 enzyme inhibitor AST-3021 (3 μM). The detailed experimental procedure was as follows: 24 hours after cell plating, 98 μL of growth medium per well was added, and 1 μL of 200×compound AST-3021 was added to each well, and the plate was shaken gently to ensure even mixing, and then placed into an incubator; after 2 hours, 1 μL of the test compound prepared at 200× was added, and the plate was shaken gently to ensure even mixing and then laced into an incubator of 37° C., 5% CO2. The inhibitor used was compound 36, i.e.
# in Flanagan et al., Bioorganic and Medicinal Chemistry (2014), page 962-977, and is referred to as AST-3021 in this invention. The values measured in this case are values corresponding to +AST-3021 IC50 (nM) in Table 1.
# The value corresponding to +AST-3021 IC50 (nM) divided by the value corresponding to IC50 (nM) is the specific activation ratio. The relative magnitude of the specific activation ratio can be used to evaluate whether this compound is a cytotoxic compound activated by human AKR1C3 (aldosterone reductase family 1 member C3): when the specific activation ratio is less than 1, it is considered that the compound is not activated by human AKR1C3 (aldosterone reductase family 1 member C3); when the specific activation ratio is greater than 1, it is considered that the compound is activated by human AKR1C3 (aldosterone reductase family 1 member C3), and the higher the value, the higher the activation degree and the selectivity of AKR1C3.
# [2] = tested on: H460 cancer cells; experiment: Inhibition of H460 cancer cells in the presence or absence of AKR1C3 inhibitor AST-3021 (section 2.1); assay type: cell-based, human; conditions: AST-3021 3 μM, read-out: IC50 (nmol/L) AST-3021 added
# Protocol: The experimental scheme was as follows: • 1) H460 cell suspension was added to a 96-well plate with 100 μL per well at a cell density of 2000/well. • 2) Cells were incubated in an incubator of 37° C., 5% CO2 overnight. • 3) Compound treatment
# Combined administration: 24 hours after cell plating, 98 μL of growth medium per well was added. 1 μL of AST-3021 was added to each well (final concentration 3 μM), and the plate was shaken gently to ensure even mixing, and then placed into an incubator; after 2 hours, 1 μL of the test compound at different concentrations was added, and the plate was shaken gently to ensure even mixing, and then placed into an incubator of 37° C., 5% CO2.
# Administration of the drug alone: 24 hours after cell plating, 99 μL of growth medium per well was added.
# In order to further verify that the compound was activated specifically by human AKR1C3 (aldosterone reductase family 1 member C3), the compound was added following the pretreatment of cells with the specific AKR1C3 enzyme inhibitor AST-3021 (3 μM), and the effect of the presence of AST-3021 on the proliferation of H460 cancer cells was tested
# IC50 data of inhibitory effect of the compounds gemcitabine and H11 on H460 cancer cells in the presence or absence of the AKR1C3 inhibitor AST-3021 is shown in Table 2 and Table 3.
# [3] = Plasma stability in monkey plasma; assay type: in vitro ADME
# Protocol: (§1) The final concentration of organic solvents was 0.5%. The test was conducted in duplicate. • C.
# (§2) Samples were analyzed with LC-MS/MS. All calculations were conducted using Microsoft Excel.
# [4] = Plasma stability in dog plasma; assay type: in vitro ADME
# Protocol: as §1, §2
# [5] = Plasma stability in rat plasma; conditions: rat, plasma
# Protocol: 1 mM working solution of the test compound was prepared in DMSO. 1 mM working solution of propantheline was prepared in acetonitrile. 1 mM working solution of lovastatin (mevinolin) was prepared in DMSO. Propantheline was used as a positive control for human, monkey, dog, and mouse plasma stability tests. Lovastatin was a positive control for rat plasma stability test.
# • A. 398 μL of plasma per well was added to the culture plate, and the plate was preheated at 37° C. for 15 minutes. • B. After preincubation, 2 μL of working solution (test solution or control solution) was added to the 398 μL plasma mentioned above, resulting in a final concentration of 5 μM. The final concentration of organic solvents was 0.5%. The test was conducted in duplicate. • C. The reaction sample was incubated at 37° C. • D. 50 μL was extracted from the reaction sample at 0, 15, 30, 60, and 120 minutes, respectively. […] 100 μL of supernatant was taken and transferred to a new plate. The supernatant was diluted with ultrapure water according to the LC-MS signal response and peak shape.
# Samples were analyzed with LC-MS/MS. All calculations were conducted using Microsoft Excel. The peak area ratio was determined from the extracted ion chromatogram. • (1) The percentage of the remaining compound at each time point was calculated with the following formula: […]
# wherein the slope value k was determined by linear regression of the natural logarithm of the remaining percentage of the parent drug vs. incubation time curve.
smiles,measurement,setting,value
CC(C)NP(=O)(OCc1ccc([N+](=O)[O-])c(Oc2ccc(-c3ccc(F)cc3)c(F)c2)c1)OCC1OC(C2N=CC(N)=NC2=O)C(F)(F)C1O (stereo not shown) [Compound H11],specific activation ratio (+AST-3021 IC50/IC50),[1],92.8
same,pIC50,"[1]; NCI-H460, compound alone, 72 hours, read-out: IC50",7.80
same,pIC50,"[1]; NCI-H460, pretreatment with AKR1C3 inhibitor AST-3021 (3 μM), read-out: +AST-3021 IC50",5.83
same,pIC50,[2]; H460,5.83 and 5.63
same,pIC50,"[2]; Homo sapiens, NCI-H460, H460",5.53
same,t1/2 (min),[3],∞
same,Remaining percentage (%),"[3]; 0 min, 5 μM, 37° C.",100.00%
same,plasma stability (in words),"[3]; 37° C., at least 2 hours",stable and has no significant metabolism
same,Remaining percentage (%),[3]; 15 min,100.61%
same,Remaining percentage (%),[3]; 30 min,92.99%
same,Remaining percentage (%),[3]; 60 min,103.66%
same,Remaining percentage (%),[3]; 120 min,98.48%
same,t1/2 (min),[4],∞
same,Remaining percentage (%),"[4]; 0 min, 5 μM, 37° C.",100.00%
same,plasma stability (in words),"[4]; 37° C., at least 2 hours",stable and has no significant metabolism
same,Remaining percentage (%),[4]; 15 min,104.14%
same,Remaining percentage (%),[4]; 30 min,103.37%
same,Remaining percentage (%),[4]; 60 min,102.42%
same,Remaining percentage (%),[4]; 120 min,103.04%
same,t1/2 (min),[5],∞
same,Remaining percentage (%),"[5]; 0 h, 5 μM",100.00%
same,Remaining percentage (%),"[5]; 0.25 h, 5 µM",108.59%
same,Remaining percentage (%),"[5]; 0.5 h, 5 µM",105.39%
same,Remaining percentage (%),"[5]; 1 h, 5 µM",100.74%
same,Remaining percentage (%),"[5]; 2 h, 5 µM",109.53%
